Source: publication PMC2423925, “Pharmacokinetics of Octreotide in Patients With Cirrhosis and Portal Hypertension; Relationship Between the Plasma Levels of the Analogue and the Magnitude and Duration of the Reduction in Corrected Wedged Hepatic Venous Pressure” (HPB Surgery, 1998)

Legend:
[1] = Pharmacokinetics of octreotide after subcutaneous injection (plasma radioimmunoassay); settings: for AUC: AUC 2-12 h; for Cmax: 50 μg, Plasma octreotide levels, Peak;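 as to all read-outs here: cirrhotic patients on twice-daily subcutaneous dosing for prevention of recurrent variceal bleeding, sampled four weeks into treatment, octreotide measured in plasma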
Description: Furthermore, we also studied the relationship between the mag- nitude and duration of response of octreotide on corrected wedged hepatic venous pressure (WHVP) and the circulatinglevels ofthe analogue after intravenous administration. Subcutaneous Administration of Octreotide Six patients (4 males and 2 females), receiving 50tg octreotide s.c. twice daily to prevent recurrent varieceal hemorrhage were studied 4 weeks after commencing treatment with the analogue. These patients were participating in a randomised controlled trial and had already undergone a baseline measurement of corrected wedged hepatic venous pressure (WHVP) prior to being commenced on octreotide (50 tg.sc.bd). […] One patient had severe (Child's C), 2 moderate (Child's B) and 3 mild (Child's A) liver dys- function. Following an overnight fast, blood samples were removed immediately prior to a subcutaneous injection of 50tg octreotide and then at 2 hourly intervals for the following 12 h. The blood samples were collected in hepari- nised bottles containing Trasylol, centrifuged at 0C, the plasma snap frozen and stored at -20C for subsequent analysis of the octreo- tide levels. […] Thirteen patient with cirrhosis and portal hy- pertension admitted for a thorough investigation of the etiology and severity of their liver disease underwent measurements of their corrected wedged hepatic venous pressure (WHVP). […] A 7F occlusion ballon Sidewinder catheter (Cordis Corporation, Miami, USA) was guided into a hepatic vein under fluoroscopic control. […] The right femoral artery was cannu- lated with a 7F Cordis cannula via a 8F Cordis introducer.

[2] = Plasma octreotide level one hour after intravenous administration (radioimmunoassay); type: in vivo, human; settings: 50 μg octreotide IV bolus, 13 patients with cirrhosis and portal hypertension
Description: Furthermore, we also studied the relationship between the mag- nitude and duration of response of octreotide on corrected wedged hepatic venous pressure (WHVP) and the circulatinglevels ofthe analogue after intravenous administration. Subcutaneous Administration of Octreotide Six patients (4 males and 2 females), receiving 50tg octreotide s.c. twice daily to prevent recurrent varieceal hemorrhage were studied 4 weeks after commencing treatment with the analogue. These patients were participating in a randomised controlled trial and had already undergone a baseline measurement of corrected wedged hepatic venous pressure (WHVP) prior to being commenced on octreotide (50 tg.sc.bd). […] One patient had severe (Child's C), 2 moderate (Child's B) and 3 mild (Child's A) liver dys- function. Following an overnight fast, blood samples were removed immediately prior to a subcutaneous injection of 50tg octreotide and then at 2 hourly intervals for the following 12 h. The blood samples were collected in hepari- nised bottles containing Trasylol, centrifuged at 0C, the plasma snap frozen and stored at -20C for subsequent analysis of the octreo- tide levels. […] Thirteen patient with cirrhosis and portal hy- pertension admitted for a thorough investigation of the etiology and severity of their liver disease underwent measurements of their corrected wedged hepatic venous pressure (WHVP). […]

[3] = normal healthy volunteers; cited from earlier work
[4] = Patient 1, Child's grade A, 50 μg s.c.
[5] = Patient 2, Child's grade A, 50 μg s.c.
[6] = Patient 3, Child's grade A, 50 μg s.c.
[7] = Patient 4, Child's grade B, 50 μg s.c.
[8] = Patient 5, Child's grade B, 50 μg s.c.
[9] = Patient 6, Child's grade C, 50 μg s.c.

## C[C@@H](O)[C@@H]1NC(=O)[C@H](CCCCN)NC(=O)[C@@H](Cc2c[nH]c3ccccc23)NC(=O)[C@H](Cc2ccccc2)NC(=O)[C@@H](NC(=O)[C@H](N)Cc2ccccc2)CSSC[C@@H](C(=O)N[C@H](CO)[C@@H](C)O)NC1=O [octreotide]
[1]; 50 μg s.c., six patients, mean ± SD
  clearance, overall: 3.04 L/h
[1]; [4]
  Clearance: 4.775 L/h
  K: 0.271 h⁻¹
  Volume of distribution: 17.62 L
[1]; [5]
  Clearance: 2.892 L/h
  K: 0.251 h⁻¹
  Volume of distribution: 11.51 L
[1]; [6]
  Clearance: 3.021 L/h
  K: 0.288 h⁻¹
  Volume of distribution: 10.47 L
[1]; [7]
  Clearance: 2.765 L/h
  K: 0.172 h⁻¹
  Volume of distribution: 16.07 L
[1]; [8]
  Clearance: 2.704 L/h
  K: 0.172 h⁻¹
  Volume of distribution: 15.77 L
[1]; [9]
  Clearance: 2.101 L/h
  K: 0.142 h⁻¹
  Volume of distribution: 14.82 L
[1]; both, human, plasma, sc, 50 ug
  Tmax: 2 h
[1]; both, human, plasma, sc, 50 ug, circulating (plasma) half life, range, 50 μg octreotide s.c., range over 6 patients with cirrhosis and portal hypertension
  half-life: 2.4 to 4.79 h
[1]; both, human, plasma, sc, 50 ug, plasma half-life, overall, 50 μg s.c., six patients, mean ± SD
  half-life: 3.44 h
[1]; human, plasma, sc, 50 ug, Patient 1, Child's grade A, 50 μg s.c.
  AUC: 10.5 ng·h/mL
[1]; human, plasma, sc, 50 ug, Patient 2, Child's grade A, 50 μg s.c.
  AUC: 17.2 ng·h/mL
[1]; human, plasma, sc, 50 ug, Patient 3, Child's grade A, 50 μg s.c.
  AUC: 16.6 ng·h/mL
[1]; human, plasma, sc, 50 ug, Patient 4, Child's grade B, 50 μg s.c.
  AUC: 18.1 ng·h/mL
[1]; human, plasma, sc, 50 ug, Patient 5, Child's grade B, 50 μg s.c.
  AUC: 18.5 ng·h/mL
[1]; human, plasma, sc, 50 ug, Patient 6, Child's grade C, 50 μg s.c.
  AUC: 23.8 ng·h/mL
[1]; human, plasma, sc, Patient 1, Child's grade A, 50 μg s.c.
  Cmax: 2.59 ng/mL
[1]; human, plasma, sc, Patient 2, Child's grade A, 50 μg s.c.
  Cmax: 2.2 ng/mL
[1]; human, plasma, sc, Patient 3, Child's grade A, 50 μg s.c.
  Cmax: 2.09 ng/mL
[1]; human, plasma, sc, Patient 4, Child's grade B, 50 μg s.c.
  Cmax: 2.94 ng/mL
[1]; human, plasma, sc, Patient 5, Child's grade B, 50 μg s.c.
  Cmax: 3.28 ng/mL
[1]; human, plasma, sc, Patient 6, Child's grade C, 50 μg s.c.
  Cmax: 3.51 ng/mL
[1]; human, plasma, sc, 50 ug, t1/2, Patient 1, Child's grade A, 50 μg s.c.
  half-life: 2.4 h
[1]; human, plasma, sc, 50 ug, t1/2, Patient 2, Child's grade A, 50 μg s.c.
  half-life: 2.76 h
[1]; human, plasma, sc, 50 ug, t1/2, Patient 3, Child's grade A, 50 μg s.c.
  half-life: 2.56 h
[1]; human, plasma, sc, 50 ug, t1/2, Patient 4, Child's grade B, 50 μg s.c.
  half-life: 4.03 h
[1]; human, plasma, sc, 50 ug, t1/2, Patient 5, Child's grade B, 50 μg s.c.
  half-life: 4.04 h
[1]; human, plasma, sc, 50 ug, t1/2, Patient 6, Child's grade C, 50 μg s.c.
  half-life: 4.89 h
[2]
  plasma octreotide level 1 h after administration: 1944 pg/mL
[2]; human, plasma, 50 ug
  level at 1 h: 1.94 ± 0.226 ng/mL
[3]
  hepatic excretion: 30-40%
